Laboratory results published in ChEMBL document CHEMBL6078723, “Novel steroidal β-carboline derivatives as promising antibacterial candidates against methicillin-resistant Staphylococcus aureus” (Eur J Med Chem, 2025).
Calls of active or inactive are those of the source. No cut-off for these calls is given here.

How the values were obtained:
[1] = system: Staphylococcus aureus; assay: Antibacterial activity against Staphylococcus aureus CGMCC1.8721; format: functional
[2] = system: Staphylococcus aureus; assay: Antibacterial activity against methicillin-resistant Staphylococcus aureus ATCC 43300; format: functional
[3] = system: Staphylococcus aureus; assay: Antibacterial activity against methicillin-resistant Staphylococcus aureus CGMCC1.12409; format: functional
[4] = system: Staphylococcus aureus; assay: Antibacterial activity against methicillin-resistant Staphylococcus aureus ATCC 33591; format: functional
[5] = system: Staphylococcus aureus; assay: Bactericidal activity against methicillin-resistant Staphylococcus aureus ATCC 43300 by CLSI based method; format: functional
[6] = system: HepG2; assay: Cytotoxicity against human HepG2 cells at 40 uM by CCK8 assay relative to control; format: toxicity, cell-based; conditions: hepg2, 40 µM
[7] = system: Staphylococcus aureus; assay: Induction of bacterial regrowth of Staphylococcus aureus CGMCC1.8721 at 4 to 8 times MIC measured after 24 hrs by time kill assay; format: functional, organism-based
[8] = system: Staphylococcus aureus; assay: Induction of resistance development in Staphylococcus aureus CGMCC1.8721 at sub-lethal concentration following serial passages for 30 days; format: functional, organism-based; conditions: time 30.0 day
[9] = system: Staphylococcus aureus; assay: Antibacterial activity against Staphylococcus aureus CGMCC1.8721 in presence of K+ (reference value: 0.5 ug/ml); format: functional
[10] = system: Staphylococcus aureus; assay: Antibacterial activity against Staphylococcus aureus CGMCC1.8721 in presence of Ca2+ (reference value: 0.5 ug/ml); format: functional
[11] = system: Staphylococcus aureus; assay: Antibacterial activity against Staphylococcus aureus CGMCC1.8721 in presence of Zn2+ (reference value: 0.5 ug/ml); format: functional
[12] = system: Staphylococcus aureus; assay: Antibacterial activity against Staphylococcus aureus CGMCC1.8721 at 36.5 degreeC (reference value: 0.5 ug/ml); format: functional
[13] = system: Staphylococcus aureus; assay: Antibacterial activity against Staphylococcus aureus CGMCC1.8721 at 37.5 degreeC (reference value: 0.5 ug/ml); format: functional
[14] = system: Staphylococcus aureus; assay: Antibacterial activity against methicillin-resistant Staphylococcus aureus ATCC 43300 in presence of K+ (reference value: 0.5 ug/ml); format: functional
[15] = system: Staphylococcus aureus; assay: Antibacterial activity against methicillin-resistant Staphylococcus aureus ATCC 43300 in presence of Zn2+ (reference value: 0.5 ug/ml); format: functional
[16] = system: Staphylococcus aureus; assay: Antibacterial activity against methicillin-resistant Staphylococcus aureus ATCC 43300 at pH 8 (reference value: 0.5 ug/ml); format: functional
[17] = system: Staphylococcus aureus; assay: Antibacterial activity against methicillin-resistant Staphylococcus aureus ATCC 43300 at 36.5 degreeC (reference value: 0.5 ug/ml); format: functional
[18] = system: Staphylococcus aureus; assay: Antibacterial activity against methicillin-resistant Staphylococcus aureus CGMCC1.12409 in presence of Na+ (reference value: 0.5 ug/ml); format: functional
[19] = system: Staphylococcus aureus; assay: Antibacterial activity against methicillin-resistant Staphylococcus aureus CGMCC1.12409 in presence of K+ (reference value: 0.5 ug/ml); format: functional
[20] = system: Staphylococcus aureus; assay: Antibacterial activity against methicillin-resistant Staphylococcus aureus CGMCC1.12409 in presence of Ca2+ (reference value: 0.5 ug/ml); format: functional
[21] = system: Staphylococcus aureus; assay: Antibacterial activity against methicillin-resistant Staphylococcus aureus CGMCC1.12409 in presence of Mg2+ (reference value: 0.5 ug/ml); format: functional
[22] = system: Staphylococcus aureus; assay: Antibacterial activity against methicillin-resistant Staphylococcus aureus CGMCC1.12409 in presence of Fe2+ (reference value: 0.5 ug/ml); format: functional
[23] = system: Staphylococcus aureus; assay: Antibacterial activity against methicillin-resistant Staphylococcus aureus CGMCC1.12409 at pH 8 (reference value: 0.5 ug/ml); format: functional
[24] = system: Staphylococcus aureus; assay: Antibacterial activity against methicillin-resistant Staphylococcus aureus CGMCC1.12409 at 36.5 degreeC (reference value: 0.5 ug/ml); format: functional
[25] = system: Staphylococcus aureus; assay: Antibacterial activity against methicillin-resistant Staphylococcus aureus ATCC 33591 in presence of K+ (reference value: 1 ug/ml); format: functional
[26] = system: Staphylococcus aureus; assay: Antibacterial activity against methicillin-resistant Staphylococcus aureus ATCC 33591 in presence of Mg2+ (reference value: 1 ug/ml); format: functional
[27] = system: Staphylococcus aureus; assay: Antibacterial activity against methicillin-resistant Staphylococcus aureus ATCC 33591 at pH 6.5 (reference value: 1 ug/ml); format: functional
[28] = system: Staphylococcus aureus; assay: Antibacterial activity against methicillin-resistant Staphylococcus aureus ATCC 33591 at 36.5 degreeC (reference value: 1 ug/ml); format: functional
[29] = system: Staphylococcus aureus; assay: Antibacterial activity against methicillin-resistant Staphylococcus aureus ATCC 33591 at 37.5 degreeC (reference value: 1 ug/ml); format: functional
[30] = system: Staphylococcus aureus; assay: Antibiofilm activity against Staphylococcus aureus CGMCC1.8721 by crystal violet staining based analysis; format: functional, organism-based
[31] = system: Staphylococcus aureus; assay: Induction of membrane depolarization in Staphylococcus aureus CGMCC1.8721 by DiSC3(5) dye based analysis; format: functional, organism-based
[32] = system: Staphylococcus aureus; assay: Induction of ROS accumulation in Staphylococcus aureus CGMCC1.8721 by DCFH-DA dye based analysis; format: functional, organism-based
[33] = system: Staphylococcus aureus; assay: Antibacterial activity against Staphylococcus aureus CGMCC1.8721 in presence of phosphatidylglycerol; format: functional, organism-based
[34] = system: Staphylococcus aureus; assay: Antibacterial activity against Staphylococcus aureus CGMCC1.8721 in presence of LTA; format: functional, organism-based
[35] = system: Staphylococcus aureus; assay: Antibacterial activity against Staphylococcus aureus CGMCC1.8721 in presence of PGN; format: functional, organism-based
[36] = system: Staphylococcus aureus; assay: Antibacterial activity against Staphylococcus aureus CGMCC1.8721 in presence of dNTP; format: functional, organism-based
[37] = system: Staphylococcus aureus; assay: Induction of cell membrane damage in Staphylococcus aureus CGMCC1.8721 assessed as red fluorescence at 4 times MIC by SYTO9/PI staining based CLSM analysis; format: functional, organism-based
[38] = system: Staphylococcus aureus; assay: Induction of morphological change in Staphylococcus aureus CGMCC1.8721 assessed as leakage of intracellular components at 4 times MIC by […] SEM analysis; format: functional, organism-based
[39] = system: Staphylococcus aureus; assay: Antibacterial activity against methicillin-resistant Staphylococcus aureus CGMCC1.12409 infected in mouse model assessed as reduction in bacterial clones at 5 to 10 mg/kg measured for 5 days; format: functional, organism-based; conditions: dose 5-10 mg/kg, time 5.0 day
[40] = system: Staphylococcus aureus; assay: Antibacterial activity against methicillin-resistant Staphylococcus aureus CGMCC1.12409 infected in mouse model assessed as reduction in bacterial load at infection site at 5 mg/kg measured for 5 days relative to control; format: functional; parameters: scale not given: the % may be the effect or the level left; conditions: time 5 day
[41] = system: Staphylococcus aureus; assay: Antibacterial activity against methicillin-resistant Staphylococcus aureus CGMCC1.12409 infected in mouse model assessed as reduction in bacterial load at infection site at 10 mg/kg measured for 5 days relative to control; format: functional; parameters: scale not given: the % may be the effect or the level left; conditions: time 5 day
[42] = system: Staphylococcus aureus; assay: Antibacterial activity against methicillin-resistant Staphylococcus aureus CGMCC1.12409 infected in mouse model assessed as smooth dorsal skin at 10 mg/kg measured for 5 days; format: functional, organism-based; conditions: route sc, time 5.0 day
[43] = system: Staphylococcus aureus; assay: Antibacterial activity against methicillin-resistant Staphylococcus aureus CGMCC1.12409 infected in mouse model assessed as reduction in neutrophils in skin tissues at 5 to 10 mg/kg measured for 5 days by H and E staining based analysis; format: functional, organism-based; conditions: dose 5-10 mg/kg, time 5.0 day
[44] = system: Staphylococcus aureus; assay: Antibacterial activity against methicillin-resistant Staphylococcus aureus CGMCC1.12409 infected in mouse model assessed as reduction in inflammation in skin tissues at 5 to 10 mg/kg measured for 5 days by H and E staining based analysis; format: functional, organism-based; conditions: dose 5-10 mg/kg, time 5.0 day

## COc1ccc2[nH]c3c(CC[C@H](C)[C@H]4CC[C@H]5[C@@H]6[C@H](O)C[C@@H]7C[C@H](O)CC[C@]7(C)[C@H]6C[C@H](O)[C@]45C)[n+](Cc4ccc(Cl)cc4)ccc3c2c1.[Br-]
[1]
  MIC: 0.5 µg/mL
[2]
  MIC: 0.5 µg/mL
[3]
  MIC: 0.5 µg/mL
[4]
  MIC: 1 µg/mL
[5]
  MBC: 1 µg/mL
[6]
  Activity: Non-toxic
[7]
  Activity: Not active; Compound Activity Was Higher Than That Of Vancomycin
[8]
  Activity: inactive
[9]
  MIC: 0.5 µg/mL
[10]
  MIC: 0.5 µg/mL
[11]
  MIC: 0.5 µg/mL
[12]
  MIC: 0.5 µg/mL
[13]
  MIC: 0.5 µg/mL
[14]
  MIC: 0.5 µg/mL
[15]
  MIC: 0.5 µg/mL
[16]
  MIC: 0.5 µg/mL
[17]
  MIC: 0.5 µg/mL
[18]
  MIC: 1 µg/mL
[19]
  MIC: 1 µg/mL
[20]
  MIC: 1 µg/mL
[21]
  MIC: 1 µg/mL
[22]
  MIC: 1 µg/mL
[23]
  MIC: 1 µg/mL
[24]
  MIC: 0.5 µg/mL
[25]
  MIC: 1 µg/mL
[26]
  MIC: 1 µg/mL
[27]
  MIC: 1 µg/mL
[28]
  MIC: 1 µg/mL
[29]
  MIC: 1 µg/mL
[30]
  Activity: Dose-dependent-effect
[31]
  Activity: Dose-dependent-effect
[32]
  Activity: Dose-dependent-effect
[33]
  Activity: inactive
[34]
  Activity: Active
[35]
  Activity: Active
[36]
  Activity: Active
[37]
  Activity: Active
[38]
  Activity: Active
[39]
  Activity: Active
[40]
  Activity: 94.33%
[41]
  Activity: 98.55%
[42]
  Activity: Active
[43]
  Activity: Active
[44]
  Activity: Active
